One may read the Ki as the equilibrium dissociation constant of an inhibitor or competing ligand from its target. High values mean lower affinity, low ones higher affinity.

Results on 16 molecules are retold here after ChEMBL document CHEMBL1135054, “Biphenylsulfonamide endothelin receptor antagonists. Part 3: structure-activity relationship of 4'-heterocyclic biphenylsulfonamides” (Bioorg Med Chem Lett, 2002).

A value given as a limit tells only on which side of the number the result lay.

The target of assay [1] is T1, Endothelin receptor type B (Homo sapiens, UniProt P24530).
T1 sequence (P24530 whole entry): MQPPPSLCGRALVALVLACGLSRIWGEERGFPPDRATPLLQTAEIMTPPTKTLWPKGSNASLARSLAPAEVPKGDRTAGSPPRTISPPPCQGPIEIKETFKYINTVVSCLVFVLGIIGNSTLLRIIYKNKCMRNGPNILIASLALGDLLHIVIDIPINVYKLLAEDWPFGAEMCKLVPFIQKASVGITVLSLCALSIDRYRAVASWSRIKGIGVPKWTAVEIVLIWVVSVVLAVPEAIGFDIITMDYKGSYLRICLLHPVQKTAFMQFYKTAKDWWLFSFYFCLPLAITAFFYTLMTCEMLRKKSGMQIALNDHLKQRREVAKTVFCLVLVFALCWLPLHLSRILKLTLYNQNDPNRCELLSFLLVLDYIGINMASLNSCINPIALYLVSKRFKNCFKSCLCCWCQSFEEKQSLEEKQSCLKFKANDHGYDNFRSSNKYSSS
The experiment in a line: Binding affinity to CHO cells stably expressing human Endothelin B receptor. Format: cell-based.

In a further assay the target is T2, Endothelin-1 receptor (Homo sapiens, UniProt P25101).
T2 sequence (P25101 whole entry): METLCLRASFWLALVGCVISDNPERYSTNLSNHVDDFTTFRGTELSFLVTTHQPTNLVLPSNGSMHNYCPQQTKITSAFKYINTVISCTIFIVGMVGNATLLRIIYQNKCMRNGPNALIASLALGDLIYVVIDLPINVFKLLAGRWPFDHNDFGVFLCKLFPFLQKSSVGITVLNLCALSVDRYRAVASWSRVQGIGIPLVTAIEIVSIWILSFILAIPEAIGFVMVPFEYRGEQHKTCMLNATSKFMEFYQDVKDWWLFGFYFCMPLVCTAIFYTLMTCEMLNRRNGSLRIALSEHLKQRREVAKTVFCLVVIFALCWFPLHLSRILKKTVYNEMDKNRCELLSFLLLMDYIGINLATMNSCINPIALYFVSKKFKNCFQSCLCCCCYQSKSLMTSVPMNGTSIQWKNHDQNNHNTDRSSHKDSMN
The experiment in a line: biochemical.

Description for Endothelin-1 receptor: Binding affinity to CHO cells stably expressing human Endothelin A receptor.

With `Cc1[n-][o+]c(NS(=O)(=O)c2ccccc2-c2ccc(-c3cccc[n+]3[O-])cc2)c1C`, the Ki in assay [1] was determined as 30.8 µM; at Endothelin-1 receptor, 0.037 µM.
For the molecule `Cc1noc(NS(=O)(=O)c2ccccc2-c2ccc(-c3cnccn3)cc2)c1C`, the Ki in assay [1] came to 22 µM; on Endothelin-1 receptor it was 0.0062 µM.
For `COc1cc(OC)nc(-c2ccc(-c3ccccc3S(=O)(=O)Nc3onc(C)c3C)cc2)n1`, the Ki in assay [1] was found to be 48 µM; on Endothelin-1 receptor it was 0.22 µM.
Turning to `Cc1noc(NS(=O)(=O)c2ccccc2-c2ccc(-n3cccn3)cc2)c1C`, the figures for the Ki (in assay [1]; at Endothelin-1 receptor) were 9.4 µM and 0.0067 µM, respectively.
As to `Cc1noc(NS(=O)(=O)c2ccccc2-c2ccc(-c3ncc[nH]3)cc2)c1C`, the Ki in assay [1] came out at 150 µM; at Endothelin-1 receptor, 0.044 µM.
Regarding `Cc1noc(NS(=O)(=O)c2ccccc2-c2ccc(-c3nccn3C)cc2)c1C`, the Ki in assay [1] was found to be 120 µM; at Endothelin-1 receptor, 0.019 µM.
Regarding `Cc1noc(NS(=O)(=O)c2ccccc2-c2ccc(-c3ccccn3)cc2)c1C`, the Ki came to 6.3 µM in assay [1] and 0.0023 µM at Endothelin-1 receptor.
On to `Cc1noc(NS(=O)(=O)c2ccccc2-c2ccc(-c3cncnc3)cc2)c1C`, for which the Ki in assay [1] is 170 µM; at Endothelin-1 receptor, 0.3 µM.
The matching figures for `Cc1noc(NS(=O)(=O)c2ccccc2-c2ccc(-c3ccno3)cc2)c1C`: 39 µM and 0.27 µM.
For `Cc1noc(NS(=O)(=O)c2ccccc2-c2ccc(-c3ccccc3)cc2)c1C`, the values for the Ki (in assay [1]; on Endothelin-1 receptor) were 20 µM and 0.038 µM, respectively.
`Cc1noc(NS(=O)(=O)c2ccccc2-c2ccc(-c3nnn[nH]3)cc2)c1C`: the Ki was more than 200 µM in assay [1] and 3.8 µM at Endothelin-1 receptor.
Take `Cc1noc(NS(=O)(=O)c2ccccc2-c2ccc(-c3nccs3)cc2)c1C`: the results for the Ki (in assay [1]; on Endothelin-1 receptor) were 52 µM and 0.0056 µM, respectively.
As for `Cc1noc(NS(=O)(=O)c2ccccc2-c2ccc(-c3cccnc3)cc2)c1C`, the Ki in assay [1] stood at 20 µM; on Endothelin-1 receptor, 0.0033 µM.
With `Cc1noc(NS(=O)(=O)c2ccccc2-c2ccc(-c3ccncn3)cc2)c1C`, the Ki was determined as 130 µM in assay [1] and 0.025 µM at Endothelin-1 receptor.
For `Cc1noc(NS(=O)(=O)c2ccccc2-c2ccc(-c3nnco3)cc2)c1C` the same measures were 75 µM and 0.004 µM.
With `Cc1noc(NS(=O)(=O)c2ccccc2-c2ccc(-c3ncccn3)cc2)c1C`, the figures for the inhibitory constant (Ki) (in assay [1]; at Endothelin-1 receptor) were 16 µM and 0.0009 µM, respectively.
